# Counter-ions that a name gives are not always drawn. Like-named read-outs stand apart in the source and are kept apart here. Starred links: 1 amine or outer side, 2 acyl side, 3 side chain; linkers in the order of their positions; H or OH if unused. Positions of bridges follow the written chain, without caps; N, C: chain ends. Non-standard residues stand in square brackets, D forms with d. Residues, ends and D or L forms follow the SMILES beside them. Chains are numbered I, II in the order given. Actinocin(9to1) = Cc1c2oc3c(C)ccc(C(=O)[*:1])c3nc-2c(C(=O)[*:2])c(N)c1=O; NMeV = CN[C@H](C(=O)O)C(C)C; Sar = CNCC(=O)O
# Key:
# [1] = system: stationary phase B. burgdorferi persisters (strain B31); test: SYBR Green I/PI viability assay (plate reader), FDA-approved drug library screen
# [2] = system: round body form of B. burgdorferi; test: SYBR Green I/PI assay on amoxicillin-induced round body form; conditions: for viability at 50 µM: Borreliella burgdorferi, 168 h, read-out: Residual viable cells (SYBR Green I/PI assay); for Ratios of green/red fluorescence, Primary screening / Ratios of green/red fluorescence, Rescreening (first column) / Ratios of green/red fluorescence, Rescreening (second column): round body form, 50 μM, 7 days
# [3] = system: B. burgdorferi (growing, strain B31); test: MIC determination, standard microdilution method; format: cell-based, Borrelia burgdorferi; conditions: for sensitivity of log phase / multiplying B. burgdorferi (words, FIG. 12): MIC test
# [4] = system: stationary phase B. burgdorferi persisters (strain B31); test: NCI compound library rescreen, epifluorescence microscope counting; conditions: for Residual viable cells (epifluorescence microscope counting) / Residual viable cells (%) 50 μM (epifluorescence microscope counting): 50 μM; for Residual viable cells (epifluorescence microscope counting): seven day old stationary phase culture; for Residual viable cells (epifluorescence microscope counting) / Residual viable cells (%) 20 μM (epifluorescence microscope counting) / Residual viable cells (%) 50 μM (epifluorescence microscope counting): 7 days; for viability at 50 µM / viability at 20 µM: Borreliella burgdorferi, 168 h; for viability at 20 µM: read-out: Residual viable cells (%) 20 μM (epifluorescence microscope counting); for Residual viable cells (%) 20 μM (epifluorescence microscope counting) / Residual viable cells (%) 50 μM (epifluorescence microscope counting): seven day old stationary phase
# [5] = system: stationary phase B. burgdorferi persisters (strain B31); test: NCI compound library screen, SYBR Green I/PI assay (plate reader); conditions: for Residual viable cells (SYBR Green I/PI assay): 50 μM, seven day old stationary phase culture; for Residual viable cells (SYBR Green I/PI assay) / Residual viable cells (%) 20 μM (SYBR Green I/PI assay): 7 days; for viability at 50 µM / viability at 20 µM: Borreliella burgdorferi, 168 h; for viability at 20 µM: read-out: Residual viable cells (%) 20 μM (SYBR Green I/PI assay); for Residual viable cells (%) 20 μM (SYBR Green I/PI assay): seven day old stationary phase
# [6] = 50 μM, 7 days, stationary phase
# [7] = read-out: Residual viable cells (epifluorescence microscope counting)
# [8] = read-out: Residual viable cells (SYBR Green I/PI assay), 50 μM, seven day old stationary phase culture, 7 days
# [9] = read-out: Residual viable cells (%) 50 μM (epifluorescence microscope counting)
# [10] = read-out: Residual viable cells (SYBR Green I/PI assay)
compound,measurement,setting,value
CO/N=C(\C(=O)N[C@@H]1C(=O)N2C(C(=O)O)=C(CSc3nnnn3C)CS[C@H]12)c1csc(N)n1 [Cefmenoxime],"Ratio of Green/Red fluorescence, Primary screening",[1]; [6],6.82
same,"Ratio of Green/Red fluorescence, Rescreening (first column)",[1]; [6],7.59
same,"Ratio of Green/Red fluorescence, Rescreening (second column)",[1]; [6],6.32
same,viability at 50 µM,"[1]; Borreliella burgdorferi, 168 h, read-out: Residual viable cells (regression equation, SYBR Green I/PI assay)",48%
same,viability at 50 µM,[2],32%
same,"Ratios of green/red fluorescence, Primary screening",[2],6.18
same,"Ratios of green/red fluorescence, Rescreening (first column)",[2],6.33
same,"Ratios of green/red fluorescence, Rescreening (second column)",[2],6.28
Cc1ncc([N+](=O)[O-])n1CCO [Metronidazole],"sensitivity of log phase / multiplying B. burgdorferi (words, FIG. 12)",[3],less potent
same,viability at 50 µM,[2],33%
same,"Ratios of green/red fluorescence, Primary screening",[2],6.23
same,"Ratios of green/red fluorescence, Rescreening (first column)",[2],6.30
same,"Ratios of green/red fluorescence, Rescreening (second column)",[2],6.31
"Cc1c2oc3c(C)ccc(C(=O)N[C@@H]4C(=O)N[C@H](C(C)C)C(=O)N5CCC[C@H]5C(=O)N(C)CC(=O)N(C)[C@@H](C(C)C)C(=O)O[C@@H]4C)c3nc-2c(C(=O)N[C@@H]2C(=O)N[C@H](C(C)C)C(=O)N3CCC[C@H]3C(=O)N(C)CC(=O)N(C)[C@@H](C(C)C)C(=O)O[C@@H]2C)c(N)c1=O [NSC3053, Dactinomycin] (I: T[dV]P[Sar][NMeV] / II: T[dV]P[Sar][NMeV]; ester I:1-I:C, II:1-II:C; linker I:N-II:N via Actinocin(9to1))",Residual viable cells (epifluorescence microscope counting),[4],30%
same,Activity against persisters (residual viable cell percentage),[4]; stationary phase persisters,30%
same,Residual viable cells (SYBR Green I/PI assay),[5],37%
same,MIC,"[3]; growing B. burgdorferi, listed as Dactinomycin",≦0.78 μg/mL
same,MIC,"[3]; growing B. burgdorferi, listed as dactinomycin",≤ 0.78 µg/mL
"CO[C@@]12[C@H](COC(N)=O)C3=C(C(=O)C(C)=C(N)C3=O)N1C[C@@H]1N[C@@H]12 [NSC26980, Mitomycin]",viability at 50 µM,[4]; read-out: Activity against persisters (residual viable cell percentage),25%
same,viability at 50 µM,[4]; [7],25%
same,viability at 50 µM,[5]; [8],20%
same,MIC,[3]; Borreliella burgdorferi,≤ 0.21 µg/mL
same,MIC,[3]; growing B. burgdorferi,≦0.21 μg/mL
"CCN(CC)c1ccc2cc3ccc(=[N+](CC)CC)cc-3oc2c1.[Cl-] [NSC44690, Pyronin B]",MIC,[3]; growing B. burgdorferi,1.8 to 3.6 µg/mL
"Cc1cc(C(=C2C=CC(=N)C=C2)c2ccc(N)cc2)ccc1N [NSC93739, 2-Methyl-4,4′-[(4-imino-2,5-cyclohexadien-1-ylidene)methylene]dianiline hydrochloride]",viability at 20 µM,[4],77%
same,viability at 50 µM,[4]; [9],43%
same,viability at 50 µM,[4]; [7],43%
same,viability at 20 µM,[5],0%
same,viability at 50 µM,[5]; [10],0%
"CC[C@@]1(O)C[C@H](O[C@H]2C[C@H](N(C)C)[C@H](O)[C@H](C)O2)c2c(O)c3c(c(O)c2[C@H]1O[C@H]1C[C@H](N(C)C)[C@H](O)[C@H](C)O1)C(=O)c1cccc(O)c1C3=O [NSC136044, Rhodomycin A]",Residual viable cells (%) 20 μM (epifluorescence microscope counting),[4],21%
same,Residual viable cells (epifluorescence microscope counting),[4],22%
same,Residual viable cells (%) 50 μM (epifluorescence microscope counting),[4],21%
same,Residual viable cells (%) 20 μM (SYBR Green I/PI assay),[5],5%
same,Residual viable cells (SYBR Green I/PI assay),[5],0%
"O/N=C(/c1ccccc1)c1ccc2c3c(cccc13)CC2 [NSC137399, 1-(1,2-Dihydro-5-acenaphthylenyl)-N-hydroxy-1-phenylmethanimine]",viability at 50 µM,[4]; [7],41%
same,viability at 50 µM,[5]; [10],51%
"O=C1c2cccc(Sc3ccccc3)c2C(=O)c2c(Sc3ccccc3)cccc21 [NSC156516, 1,8-Di(phenylthio)anthraquinone]",viability at 50 µM,[4]; [7],50%
same,viability at 50 µM,[5]; [8],46%
"NC(=O)OCC1=C(COC(N)=O)C(=O)c2c(O)ccc(O)c2C1=O [NSC224124, (5,8-dihydroxy-1,4-dioxo-1,4-dihydronaphthalene-2,3-diyl)dimethanediyl dicarbamate]",viability at 20 µM,[4],77%
same,viability at 50 µM,[4]; [9],31%
same,viability at 50 µM,[4]; [7],31%
same,viability at 20 µM,[5],54%
same,viability at 50 µM,[5]; [10],32%
"COc1cccc2c1C(=O)c1c(O)c3c(c(O)c1C2=O)C[C@@](O)(C(C)=O)C[C@@H]3OC1CC(N(C)C)C(O)C(C)O1 (stereo partly shown) [NSC258812, Dimethyldaunomycin hydrochloride]",viability at 20 µM,[4],10%
same,viability at 50 µM,[4]; [9],10%
same,viability at 50 µM,[4]; [7],10%
same,viability at 20 µM,[5],0%
same,viability at 50 µM,[5]; [10],0%
"Cc1c2cc[n+](CCN3CCCCC3)cc2c(C)c2c1[nH]c1ccc(O)cc12 [NSC311153, 9-Hydroxy-2-(2-piperidinylethyl)ellipticinium acetate]",viability at 50 µM,[4]; [7],26%
same,viability at 50 µM,[5]; [10],45%
"O=C1c2ccccc2C(=O)c2c(O)c(NCCNCCO)cc(O)c21 [NSC316157, 9,10-Anthracenedione, 1,4-dihydroxy-2-[[2-[(2-hydroxyethyl)amino]ethyl]amino]-]",viability at 50 µM,[4]; [7],23%
same,viability at 50 µM,[5]; [10],0%
"Cc1ccc(NCCN(C)C)c2c(=O)c3cc(O)ccc3sc12 [NSC317003, 9H-Thioxanthen-9-one, 1-[[2-(dimethylamino)ethyl]amino]-7-hydroxy-4-methyl-, monohydriodide]",viability at 50 µM,[4]; [7],30%
same,viability at 50 µM,[5]; [10],29%
"C=CCNc1ncnc2sc(SC)nc12 [NSC343783, N-Allyl-2-(methylthio)[1,3]thiazolo[5,4-d]pyrimidin-7-amine]",viability at 50 µM,[4]; [7],20%
same,viability at 50 µM,[5]; [10],67%
"O=C1c2cccc(NCCCNCCO)c2C(=O)c2cccc(NCCCNCCO)c21 [NSC363998, Anthracene-9,10-dione, 1,5-bis[3-[[(2-hydroxyethyl)amino]propyl]amino]-9,10-dihydro-, dihydrochloride]",viability at 20 µM,[4],14%
same,viability at 50 µM,[4]; [9],13%
same,viability at 50 µM,[4]; [7],13%
same,viability at 20 µM,[5],22%
same,viability at 50 µM,[5]; [10],0%
"O=c1c(O)c(-c2ccc(O)c(O)c2)oc2cc(O)ccc12 [NSC407010, 2-(3,4-dihydroxyphenyl)-3,7-dihydroxy-4H-1-benzopyran-4-one]",viability at 50 µM,[4]; [7],38%
same,viability at 50 µM,[5]; [8],39%
"Cc1cc(O)c2c(c1)C(=O)c1cc(O)cc(O)c1C2=O [NSC408120, Emodin]",viability at 50 µM,[4]; [7],31%
same,viability at 50 µM,[5]; [10],18%
"N=C(Nc1nc(-c2ccccn2)cc2ccccc12)c1ccccn1 [NSC637578, N-[3-(2-Pyridyl)isoquinolin-1-yl]-2-pyridinecarboxamidine]",viability at 50 µM,[4]; [7],26%
same,viability at 50 µM,[5]; [10],46%
"COCCOC1=C(Cl)C(=O)c2c(O)ccc(O)c2C1=O [NSC659997, Naphthalene-1,4-dione, 2-chloro-5,8-dihydroxy-3-(2-methoxyethoxy)-]",viability at 20 µM,[4],50%
same,viability at 50 µM,[4]; [9],28%
same,viability at 50 µM,[4]; [7],28%
same,viability at 20 µM,[5],40%
same,viability at 50 µM,[5]; [10],1%
"Cc1cc(NS(=O)(=O)c2ccc(N)cc2)no1 [Smx, sulfamethoxazole]",MIC,"[3]; Borreliella burgdorferi, growing B. burgdorferi, read-out: MIC",≤ 0.2 µg/mL
Cc1noc(NS(=O)(=O)c2ccc(N)cc2)c1C [Sulfisoxazole],activity against stationary phase B. burgdorferi (words; SYBR Green I/PI assay),[1]; FDA drug screen,effective
same,viability at 50 µM,[2],33%
same,"Ratios of green/red fluorescence, Primary screening",[2],6.53
same,"Ratios of green/red fluorescence, Rescreening (first column)",[2],6.15
same,"Ratios of green/red fluorescence, Rescreening (second column)",[2],6.18
COc1c(N2C[C@@H]3CCCN[C@@H]3C2)c(F)cc2c(=O)c(C(=O)O)cn(C3CC3)c12 [moxifloxacin],viability at 50 µM,[2],49%
CCn1cc(C(=O)O)c(=O)c2cc(F)c(N3CCNCC3)cc21 [norfloxacin],viability at 50 µM,[2],41%
C[C@]1(Cn2ccnn2)[C@H](C(=O)O)N2C(=O)C[C@H]2S1(=O)=O [tazobactam],"sensitivity of log phase / multiplying B. burgdorferi (words, FIG. 12)",[3],less potent
"Benzoic acid, 2-hydroxy-, (2,6-pyridinediyldiethylidyne)dihydrazide, nickel complex [NSC617570]",Residual viable cells (%) 20 μM (epifluorescence microscope counting),[4],50%
same,Residual viable cells (epifluorescence microscope counting),[4],38%
same,Residual viable cells (%) 50 μM (epifluorescence microscope counting),[4],38%
same,Residual viable cells (%) 20 μM (SYBR Green I/PI assay),[5],66%
same,Residual viable cells (SYBR Green I/PI assay),[5],44%
Nogalamycin [NSC70845],Residual viable cells (%) 20 μM (epifluorescence microscope counting),[4],15%
same,Residual viable cells (epifluorescence microscope counting),[4],15%
same,Residual viable cells (%) 50 μM (epifluorescence microscope counting),[4],15%
same,Residual viable cells (%) 20 μM (SYBR Green I/PI assay),[5],3%
same,Residual viable cells (SYBR Green I/PI assay),[5],0%

# Reference: US20170058314A1, “NOVEL METHODOLOGY FOR IDENTIFYING ANTI-PERSISTER ACTIVITY AND ANTIMICROBIAL SUSCEPTIBILITY FOR BORRELIA BURGDORFERI AND OTHER BACTERIA” (priority 2014, published 2017)
